12 molecules from US4206215A, “Antimicrobial bis-[4-(substituted-amino)-1-pyridinium]alkanes” (Sterling Drug Inc., priority 1977, dated 1980) can be followed below.

Experiment [1] concerns T. menta. 9129. Kind of experiment: In vitro antifungal activity, MIC (modified Autotiter method). The format is cell-based, Trichophyton mentagrophytes. To be noted: 18-20 hours at 37° C.; for MIC: Trichophyton mentagrophytes, 20 h, read-out: MIC T. menta. 9129. The gist of the method:
(§1)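 Final drug range: 500 → 0.06 mcg./ml., twofold decrements, in inoculated semisynthetic glucose medium. Dilution performed by Autotiter transfer loops in sterile water from a 1,000 mcg./ml. compound solution.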

Experiment [2] deals with S. Aureus Smith. As to the kind of experiment: In vitro antibacterial activity, MIC (modified Autotiter method). The format is cell-based, Staphylococcus aureus. The conditions noted are these: Staphylococcus aureus, 20 h, 18-20 hours at 37° C.; read-out: MIC S. Aureus Smith. The gist of the method: as §1
Experiment [3] has as its system Ps. aerug. MGH-2. The description is as above. The conditions noted are these: Pseudomonas aeruginosa, 20 h, 18-20 hours at 37° C.; read-out: MIC Ps. aerug. MGH-2. The format is cell-based, Pseudomonas aeruginosa. The gist of the method:
as §1

Experiment [4] concerns E. coli Vogel. The description is as above. The format is cell-based, Escherichia coli. To be noted: 18-20 hours at 37° C.; for MIC: Escherichia coli, 20 h, read-out: MIC E. coli Vogel. In short, it runs like this:
as §1

The test system of experiment [5] is E. coli 100/B22. The experiment is described as above. The conditions noted are these: Escherichia coli, 100/B22, 20 h, 18-20 hours at 37° C.; read-out: MIC E. coli 100/B22. The experiment is classed as cell-based, Escherichia coli. The gist of the method:
as §1

Experiment [6] relates to E. coli AB1932-1. The description is as above. The format is cell-based, Escherichia coli. The conditions noted are these: 18-20 hours at 37° C.; for MIC: Escherichia coli, AB19321, 20 h, read-out: MIC E. coli AB1932-1. The gist of the method: as §1
Experiment [7] deals with K. pneum. 39645. The description is as above. The format is cell-based, Klebsiella pneumoniae. The conditions noted are these: Klebsiella pneumoniae, 20 h, 18-20 hours at 37° C.; read-out: MIC K. pneum. 39645. The gist of the method:
as §1

The subject of experiment [8] is C. albicans Wisc. As to the kind of experiment: In vitro antifungal activity, MIC (modified Autotiter method). The experiment is classed as cell-based, Candida albicans. To be noted: Candida albicans, 20 h, 18-20 hours at 37° C.; read-out: MIC C. albicans Wisc. The gist of the method: as §1
In experiment [9] the test system is C. albicans 10231. The experiment is described as above. The format is cell-based, Candida albicans. The conditions noted are these: Candida albicans, 10231, 20 h, 18-20 hours at 37° C.; read-out: MIC C. albicans 10231. In short, it runs like this: as §1
The test system of experiment [10] is A. niger 16404. The description is as above. The experiment is classed as cell-based, Aspergillus niger. The conditions noted are these: 18-20 hours at 37° C.; for MIC: Aspergillus niger, 16404, 20 h, read-out: MIC A. niger 16404. In short, it runs like this:
as §1

Experiment [11] relates to S. pyogen. C203. Kind of experiment: In vitro antibacterial activity, MIC (modified Autotiter method). The experiment is classed as cell-based, Streptococcus pyogenes. The conditions noted are these: Streptococcus pyogenes, 20 h, 18-20 hours at 37° C.; read-out: MIC S. pyogen. C203. In short, it runs like this: as §1
The test system of experiment [12] is P. mirab. MGH-1. The experiment is described as above. The format is cell-based, Proteus mirabilis. The conditions noted are these: Proteus mirabilis, 20 h, 18-20 hours at 37° C.; read-out: MIC P. mirab. MGH-1. In short, it runs like this: as §1

Turning to `Fc1ccc(Nc2cc[n+](CCCCCCCC[n+]3ccc(Nc4ccc(F)cc4)cc3)cc2)cc1` [Example 84, 1,8-bis-[4-p-fluorophenylamino)-1-pyridinium]octane dibromide], the MIC is 15.6 mg/L in experiment [1]; 1.95 mg/L in experiment [2]; more than 62.5 mg/L in experiment [3]; 15.6 mg/L in [4]; 15.6 mg/L in experiment [5]; 7.8 mg/L in experiment [6]. Besides, the MIC is more than 62.5 mg/L in [7]; 7.8 mg/L in experiment [8]; 15.6 mg/L in [9]; 15.6 mg/L in experiment [10]; 7.8 mg/L in [11]; more than 125 mg/L in experiment [12].

Take `CCCCCCCCCCCCNc1cc[n+](CCCCCCC[n+]2ccc(NCCCCCCCCCCCC)cc2)cc1` [Example 71, 1,7-bis-[4-(dodecylamino)-1-pyridinium]heptane dibromide]: the MIC in experiment [1] is 7.8 mg/L; in experiment [2], 3.9 mg/L; in experiment [3], 62.5 mg/L; in [4] it was 62.5 mg/L; in experiment [5] it was 62.5 mg/L; in [6], 62.5 mg/L. Also, the MIC in [7] is more than 62.5 mg/L; in experiment [8], 62.5 mg/L; in [9] it was 62.5 mg/L; in [10], 62.5 mg/L; in [11], 7.8 mg/L; in [12] it was 62.5 mg/L.

`CCCCCCCCCCNc1cc[n+](CCCCCCCC[n+]2ccc(NCCCCCCCCCC)cc2)cc1` [Example 66, 1,8-bis-[4-(decylamino)-1-pyridinium]octane dibromide]: the MIC in experiment [1] stood at 1.95 mg/L; in [2], 1 mg/L; in experiment [3], 7.8 mg/L; in experiment [4] it was 1.95 mg/L; in experiment [5], 3.9 mg/L; in experiment [6] it was 7.8 mg/L. The MIC in experiment [7] worked out at 3.9 mg/L; in experiment [8], 15.6 mg/L; in [9] it was 7.8 mg/L; in experiment [10], 15.6 mg/L; in experiment [11] it was 1.95 mg/L; in experiment [12] it was 7.8 mg/L.

Regarding `CCCCCCCCCNc1cc[n+](CCCCCC[n+]2ccc(NCCCCCCCCC)cc2)cc1` [Example 47, 1,6-bis-[4-(nonylamino)-1-pyridinium]-hexane dibromide], the MIC in [1] amounted to 1 mg/L; in [2], 0.5 mg/L; in [3], 15.6 mg/L; in experiment [4], 1 mg/L; in experiment [5], 1.95 mg/L; in experiment [6] it was 1.95 mg/L. Also, the MIC came out at 3.9 mg/L in [7]; 1.95 mg/L in experiment [8]; 3.9 mg/L in experiment [9]; 1 mg/L in [11]; 3.9 mg/L in experiment [12]. In experiment [10], the “MIC A. niger 16404” value worked out at 15.6 mg/L.

Consider `CCCCCCNc1cc[n+](CCCCCCCCCCCC[n+]2ccc(NCCCCCC)cc2)cc1` [Example 8], for which, in experiment [1], the “MIC T. menta. 9129” value came out at 1.0 mg/L. Also, the MIC in [2] worked out at 0.25 mg/L; in experiment [3], 15.6 mg/L; in experiment [5], 0.5 mg/L; in [7] it was 1 mg/L; in experiment [8] it was 1 mg/L; in experiment [9] it was 1 mg/L. Also, the results for the MIC in experiment [11] and in [12] were 1 mg/L and 7.8 mg/L, respectively. The “MIC E. coli Vogel” value in experiment [4] was found to be 1.0 mg/L. In experiment [6], the “MIC E. coli AB1932-1” value was 1.0 mg/L. Also, the “MIC A. niger 16404” value in [10] turned out to be 7.8 mg/L.

As to `CCCCCCCCCCCCNc1cc[n+](CCCCCCCCC[n+]2ccc(NCCCCCCCCCCCC)cc2)cc1` [Example 73, 1,9-bis-[4-(dodecylamino)-1-pyridinium]nonane dibromide], the MIC was 7.8 mg/L in experiment [1]; 7.8 mg/L in [2]; more than 62.5 mg/L in [3]; 62.5 mg/L in experiment [4]; 62.5 mg/L in [5]; more than 62.5 mg/L in [6]. Moreover, the MIC in experiment [7] is more than 62.5 mg/L; in experiment [8] it was 31.3 mg/L; in [9] it was more than 62.5 mg/L; in experiment [10], more than 62.5 mg/L; in experiment [11], 15.6 mg/L; in experiment [12] it was 62.5 mg/L.

In the case of `Nc1cc[n+](CCCCCCCC[n+]2ccc(N)cc2)cc1` [I, 1,8-bis-(4-amino-1-pyridinium)octane dibromide, reference compound], the MIC in experiment [1] was 125 mg/L; in experiment [2], 31.3 mg/L; in experiment [3], more than 500 mg/L; in [4] it was 125 mg/L; in experiment [5], 250 mg/L; in experiment [6], 125 mg/L. Besides, the MIC in experiment [7] is more than 500 mg/L; in [8] it was 125 mg/L; in [9], 125 mg/L; in experiment [10], 125 mg/L; in [11] it was 31.3 mg/L; in experiment [12], more than 500 mg/L.

`CCCCCCCCCCCCNc1cc[n+](CCCCCCCCCCCC[n+]2ccc(NCCCCCCCCCCCC)cc2)cc1` [Example 75, 1,12-bis-[4-(dodecylamino)-1-pyridinium]dodecane dibromide]: the MIC in experiment [1] is 15.6 mg/L; in experiment [2] it was 31.3 mg/L; in [3], more than 62.5 mg/L; in experiment [4], more than 62.5 mg/L; in experiment [5], more than 62.5 mg/L; in experiment [6], more than 62.5 mg/L. In addition, the MIC in [7] was more than 62.5 mg/L; in experiment [8], more than 62.5 mg/L; in experiment [9], more than 62.5 mg/L; in experiment [10], more than 62.5 mg/L; in experiment [11] it was 15.6 mg/L; in experiment [12], more than 62.5 mg/L.

On to `CCCCCCCCNc1cc[n+](CCCCCCCCCCCCCC[n+]2ccc(NCCCCCCCC)cc2)cc1` [Example 46, 1,14-bis-[4-(octylamino)-1-pyridinium]tetradecane dibromide], for which the MIC in experiment [1] is 1.95 mg/L; in experiment [2], 1 mg/L; in experiment [3], 3.9 mg/L; in experiment [4], 7.8 mg/L; in experiment [5], 3.9 mg/L; in experiment [6], 3.9 mg/L. In addition, the MIC was 7.8 mg/L in experiment [7]; 7.8 mg/L in experiment [8]; 7.8 mg/L in experiment [9]; 15.6 mg/L in experiment [10]; 1.95 mg/L in experiment [11]; 3.9 mg/L in experiment [12].

Take `CCCCCCCCCNc1cc[n+](CCCCCCCCC[n+]2ccc(NCCCCCCCCC)cc2)cc1` [Example 50, 1,9-bis-[4-(nonylamino)-1-pyridinium]nonane dibromide]: the MIC in [1] was determined as 1.95 mg/L; in experiment [2] it was 1.95 mg/L; in experiment [3], 3.9 mg/L; in experiment [4] it was 1.95 mg/L; in experiment [5], 1.95 mg/L; in [6], 3.9 mg/L. Moreover, the MIC in [7] stood at 3.9 mg/L; in experiment [8], 3.9 mg/L; in experiment [9] it was 3.9 mg/L; in experiment [10], 7.8 mg/L; in experiment [11], 1.95 mg/L; in experiment [12], 3.9 mg/L.

For the molecule `CCCCCCNc1cc[n+](CCCCCCCCC[n+]2ccc(NCCCCCC)cc2)cc1` [Example 19, 1,9-bis-[4-(hexylamino)-1-pyridinium]-nonane dibromide], the MIC in experiment [1] was 3.9 mg/L; in [2], 0.39 mg/L; in experiment [3], 125 mg/L; in experiment [4], 1.95 mg/L; in experiment [5], 1.95 mg/L; in [6], 1.95 mg/L. Besides, the MIC in [7] was 3.9 mg/L; in [8], 3.9 mg/L; in experiment [9], 1.95 mg/L; in experiment [10], 15.6 mg/L; in [11], 0.49 mg/L; in experiment [12], 125 mg/L.

As for `Clc1ccc(Nc2cc[n+](CCCCCCCC[n+]3ccc(Nc4ccc(Cl)cc4)cc3)cc2)cc1` [Example 78B, 1,8-bis-[4-(p-chlorophenylamino)-1-pyridinium]octane dimethanesulfonate], the MIC in [1] was 31.3 mg/L; in [2] it was 0.4 mg/L; in [3] it was 125 mg/L; in [4], 3.1 mg/L; in experiment [5], 3.1 mg/L; in experiment [6], 1.6 mg/L. For the same molecule, the MIC came out at 31.3 mg/L in [7]; 62.5 mg/L in experiment [8]; 62.5 mg/L in [9]; 31.3 mg/L in experiment [10]; 0.2 mg/L in experiment [11]; 125 mg/L in [12].
